Data as given in patent US11406590B2, “Essential oil emulsion nostril treatment composition” (King Abdulaziz University, priority 2020, dated 2022).

System: Salmonella enterica subsp. Enterica serovar typhimurium (ATCC 29629, TA 1535)
Experiment: Ames test of liposomal preparation
Format: cell-based
Settings: 20 and 200 nmol
Description: To evaluate the safety of the liposomal preparation described in Example 1, the Ames test is performed according to the procedure described by, and incorporated by reference to, Ames et al, Carcinogens are mutagens: their detection and classification. Environ Health Perspect. 1973 December; 6:115-8; Mortelmans and Zeiger, The Ames Salmonella/microsome mutagenicity assay. Mutat Res. 2000 Nov. 20; 455(1-2):29-60.
Briefly, the test organism Salmonella enterica subsp. Enterica serovar typhimurium (ATCC® 29629-Strain Designations: TA 1535), an auxotrophic mutant, is provided by ATCC, Manassas, USA. This auxotrophic isolate has a mutation in its DNA which prevents it from producing histidine and thus requires histidine for its growth.
Potentially mutagenic substances are identified by contacting them with this auxotrophic mutant and measuring the frequency of mutations that restore the ability of this auxotroph to grown a medium not containing histidine. […]
A degree of mutagenicity of the liposome preparation is determined by comparison of the number of colonies appearing on the negative and positive controls and the number of colonies on the solid medium containing different concentrations of the liposome preparation containing the essential oil-in-water emulsion of Example 1.

## CC[n+]1c(-c2ccccc2)c2cc(N)ccc2c2ccc(N)cc21 [ethidium bromide]
  Colony counts on positive control plates: significant increase
